# Results as given in patent publication US11000033B2, “Ketone or oxime compound, and herbicide” (NISSAN CHEMICAL CORPORATION, priority 2014, dated 2021).
# Legend:
# Type in all cases: in vivo
# [1] = tested on: Abutilon theophrasti; experiment: Test Example 4: herbicidal effect by soil treatment (symbol M); settings: application herbicide amount 320 g/ha
# Method in brief: (§1)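 Seeds were sown in sterilized diluvial soil, covered with about 1.5 cm of soil, and the soil surface was sprayed with a water-diluted emulsion of the compound at a predetermined rate. Plants grew in a greenhouse at 25° C. to 30° C.; effects were scored visually 3 weeks after application.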
# [2] = tested on: Echinochloa crus-galli var. crus-galli; experiment: Test Example 4: herbicidal effect by soil treatment (symbol H); settings: application herbicide amount 320 g/ha
# Method in brief: as §1
# [3] = tested on: Lolium multiflorum Lam.; experiment: Test Example 4: herbicidal effect by soil treatment (symbol K); settings: application herbicide amount 320 g/ha
# Method in brief: as §1
# [4] = tested on: Amaranthus retroflexus; experiment: Test Example 5: herbicidal effect by foliage application, plastic box (symbol N); settings: 320 g/ha, 3 weeks after application
# Method in brief: (§2)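 Greenhouse foliar test: seedlings at 14 days, grown 25° C. to 30° C. in sterilized diluvial soil; compound applied as an aqueous dilution of an emulsion; response read 3 weeks after spraying.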
# [5] = tested on: wheat; experiment: Test Example 4: effect on crop by soil treatment (symbol e); settings: application herbicide amount 320 g/ha
# Method in brief: (§3)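 Soil-treatment setup: crop and weed seeds were spot-sown into sterilized diluvial soil, then buried beneath approximately 1.5 cm of it, and the boxes were housed in a 25–30° C. greenhouse.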
# [6] = tested on: rapeseed; experiment: Test Example 5: effect on crop by foliage application, plastic box (symbol g); settings: 320 g/ha, 3 weeks after application
# Method in brief: (§4)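 Diluvial soil, sterilized and boxed (21 × 13 × 7 cm), received spot-sown seed covered by about 1.5 cm soil; plants were then greenhouse-grown at 25–30° C.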
# [7] = tested on: Echinochloa crus-galli var. crus-galli; experiment: Test Example 5: herbicidal effect by foliage application, plastic box (symbol H); settings: 320 g/ha, 3 weeks after application
# Method in brief: as §2
# [8] = tested on: transplanted rice plant; experiment: Test Example 1: effect on crop, application before weed generation in submerged conditions (symbol a); settings: application herbicide amount 320 g/ha
# Method in brief: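 Rice at 2.5 leaf stage transplanted into submerged soil (4 cm depth) sown with three weed species; herbicide applied before weed emergence.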
# [9] = tested on: soybean; experiment: Test Example 4: effect on crop by soil treatment (symbol d); settings: application herbicide amount 320 g/ha
# Method in brief: as §3
# [10] = tested on: soybean; experiment: Test Example 5: effect on crop by foliage application, plastic box (symbol d); settings: 320 g/ha, 3 weeks after application
# Method in brief: as §4
# [11] = tested on: Avena fatua; experiment: Test Example 4: herbicidal effect by soil treatment (symbol I); settings: application herbicide amount 320 g/ha
# Method in brief: as §1
# [12] = tested on: beet; experiment: Test Example 4: effect on crop by soil treatment (symbol f); settings: application herbicide amount 320 g/ha
# Method in brief: as §3
# [13] = tested on: Lolium multiflorum Lam.; experiment: Test Example 5: herbicidal effect by foliage application, plastic box (symbol K); settings: 320 g/ha, 3 weeks after application
# Method in brief: as §2
# [14] = tested on: Scirpus juncoides; experiment: Test Example 2: herbicidal activity, application during weed generation in submerged conditions (symbol B); settings: Table 23; application herbicide amount 320 g/ha; grade 0-5 by criteria of Test Example 1
# Method in brief: (§5)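 Flooded-soil post-emergence test: emulsion of compound, water-diluted to target rate, applied to paddy water surface at 1–2 leaf stage of mixed-sown weeds (alluvial soil, 4 cm water, 25–30° C. greenhouse); visual rating 3 weeks after application.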
# [15] = tested on: Veronica persica; experiment: Test Example 5: herbicidal effect by foliage application, plastic box (symbol R); settings: 320 g/ha, 3 weeks after application
# Method in brief: as §2
# [16] = tested on: Monochoria vaginalis; experiment: Test Example 2: herbicidal activity, application during weed generation in submerged conditions (symbol C); settings: Table 23; application herbicide amount 320 g/ha; grade 0-5 by criteria of Test Example 1
# Method in brief: as §5
# [17] = tested on: corn; experiment: Test Example 5: effect on crop by foliage application, plastic box (symbol c); settings: 320 g/ha, 3 weeks after application
# Method in brief: as §4
# [18] = tested on: Digitaria ciliaris; experiment: Test Example 5: herbicidal effect by foliage application, plastic box (symbol F); settings: 320 g/ha, 3 weeks after application
# Method in brief: as §2
# [19] = tested on: rice; experiment: Test Example 4: effect on crop by soil treatment (symbol b); settings: application herbicide amount 320 g/ha
# Method in brief: as §3
SMILES,M (Abutilon theophrasti) herbicidal effect grade [1],H (Echinochloa crus-galli var. crus-galli) herbicidal effect grade [2],K (Lolium multiflorum Lam.) herbicidal effect grade [3],"N: Amaranthus retroflexus, herbicidal effect grade [4]",e (wheat) effect on crop grade [5],"g: rapeseed, effect on crop grade [6]","H: Echinochloa crus-galli var. crus-galli, herbicidal effect grade [7]","Effect grade on crop, a: transplanted rice plant [8]",d (soybean) effect on crop grade [9],"d: soybean, effect on crop grade [10]",I (Avena fatua) herbicidal effect grade [11],f (beet) effect on crop grade [12],"K: Lolium multiflorum Lam., herbicidal effect grade [13]","Herbicidal effect grade, B: Scirpus juncoides [14]","R: Veronica persica, herbicidal effect grade [15]","Herbicidal effect grade, C: Monochoria vaginalis [16]","c: corn, effect on crop grade [17]","F: Digitaria ciliaris, herbicidal effect grade [18]",b (directly sowed rice plant) effect on crop grade [19]
CON=C(C)CC1CC(OC(=O)C(C)Oc2ccccc2)=C(c2c(C)cc(C)cc2C)C1=O (stereo not shown) [1-060],4 (Herbicidal ratio of 70% or higher and lower than 90%),5 (Herbicidal ratio of 90% or more (almost completely withered)),5 (Herbicidal ratio of 90% or more (almost completely withered)),0 (Herbicidal ratio of 5% or lower (almost no effect)),2 (Herbicidal ratio of 20% or higher and lower than 40%),4 (Herbicidal ratio of 70% or higher and lower than 90%),5 (Herbicidal ratio of 90% or more (almost completely withered)),5 (Herbicidal ratio of 90% or more (almost completely withered)),0 (Herbicidal ratio of 5% or lower (almost no effect)),4 (Herbicidal ratio of 70% or higher and lower than 90%),3 (Herbicidal ratio of 40% or higher and lower than 70%),0 (Herbicidal ratio of 5% or lower (almost no effect)),5 (Herbicidal ratio of 90% or more (almost completely withered)),4 (Herbicidal ratio of 70% or higher and lower than 90%),3 (Herbicidal ratio of 40% or higher and lower than 70%),0 (Herbicidal ratio of 5% or lower (almost no effect)),4 (Herbicidal ratio of 70% or higher and lower than 90%),5 (Herbicidal ratio of 90% or more (almost completely withered)),5 (Herbicidal ratio of 90% or more (almost completely withered))
CCCC(CC1CC(O)=C(c2c(C)cc(C)cc2C)C1=O)=NOC (stereo not shown) [1-062],0 (Herbicidal ratio of 5% or lower (almost no effect)),5 (Herbicidal ratio of 90% or more (almost completely withered)),5 (Herbicidal ratio of 90% or more (almost completely withered)),0 (Herbicidal ratio of 5% or lower (almost no effect)),0 (Herbicidal ratio of 5% or lower (almost no effect)),3 (Herbicidal ratio of 40% or higher and lower than 70%),4 (Herbicidal ratio of 70% or higher and lower than 90%),5 (Herbicidal ratio of 90% or more (almost completely withered)),0 (Herbicidal ratio of 5% or lower (almost no effect)),0 (Herbicidal ratio of 5% or lower (almost no effect)),0 (Herbicidal ratio of 5% or lower (almost no effect)),0 (Herbicidal ratio of 5% or lower (almost no effect)),5 (Herbicidal ratio of 90% or more (almost completely withered)),0 (Herbicidal ratio of 5% or lower (almost no effect)),0 (Herbicidal ratio of 5% or lower (almost no effect)),0 (Herbicidal ratio of 5% or lower (almost no effect)),4 (Herbicidal ratio of 70% or higher and lower than 90%),1 (Herbicidal ratio of 5% or higher and lower than 20%),5 (Herbicidal ratio of 90% or more (almost completely withered))
CON=C(C)CC1CC(OC(=O)C(C)(C)Oc2ccccc2Cl)=C(c2c(C)cc(C)cc2C)C1=O (stereo not shown) [1-064],3 (Herbicidal ratio of 40% or higher and lower than 70%),5 (Herbicidal ratio of 90% or more (almost completely withered)),5 (Herbicidal ratio of 90% or more (almost completely withered)),2 (Herbicidal ratio of 20% or higher and lower than 40%),3 (Herbicidal ratio of 40% or higher and lower than 70%),4 (Herbicidal ratio of 70% or higher and lower than 90%),5 (Herbicidal ratio of 90% or more (almost completely withered)),4 (Herbicidal ratio of 70% or higher and lower than 90%),2 (Herbicidal ratio of 20% or higher and lower than 40%),4 (Herbicidal ratio of 70% or higher and lower than 90%),3 (Herbicidal ratio of 40% or higher and lower than 70%),0 (Herbicidal ratio of 5% or lower (almost no effect)),3 (Herbicidal ratio of 40% or higher and lower than 70%),4 (Herbicidal ratio of 70% or higher and lower than 90%),3 (Herbicidal ratio of 40% or higher and lower than 70%),1 (Herbicidal ratio of 5% or higher and lower than 20%),5 (Herbicidal ratio of 90% or more (almost completely withered)),5 (Herbicidal ratio of 90% or more (almost completely withered)),5 (Herbicidal ratio of 90% or more (almost completely withered))
CON=C(C)CC1CC(OC(=O)C(C)(C)Oc2cccc(Cl)c2)=C(c2c(C)cc(C)cc2C)C1=O (stereo not shown) [1-065],4 (Herbicidal ratio of 70% or higher and lower than 90%),5 (Herbicidal ratio of 90% or more (almost completely withered)),5 (Herbicidal ratio of 90% or more (almost completely withered)),2 (Herbicidal ratio of 20% or higher and lower than 40%),4 (Herbicidal ratio of 70% or higher and lower than 90%),4 (Herbicidal ratio of 70% or higher and lower than 90%),5 (Herbicidal ratio of 90% or more (almost completely withered)),5 (Herbicidal ratio of 90% or more (almost completely withered)),0 (Herbicidal ratio of 5% or lower (almost no effect)),4 (Herbicidal ratio of 70% or higher and lower than 90%),3 (Herbicidal ratio of 40% or higher and lower than 70%),0 (Herbicidal ratio of 5% or lower (almost no effect)),5 (Herbicidal ratio of 90% or more (almost completely withered)),5 (Herbicidal ratio of 90% or more (almost completely withered)),3 (Herbicidal ratio of 40% or higher and lower than 70%),0 (Herbicidal ratio of 5% or lower (almost no effect)),5 (Herbicidal ratio of 90% or more (almost completely withered)),5 (Herbicidal ratio of 90% or more (almost completely withered)),5 (Herbicidal ratio of 90% or more (almost completely withered))
